Experiment: xn = mol fraction of the nth substance listed, in the solute-free solvent

CN1CCN(C2=Nc3cc(Cl)ccc3Nc3ccccc32)CC1 + CN1CCCC1=O + O
solubility (g/100 g solution)
Conditions | x2 = 0.0198 | x2 = 0.04347 | x2 = 0.07228 | x2 = 0.1081 | x2 = 0.1538 | x2 = 0.2143 | x2 = 0.2979 | x2 = 0.421 | x2 = 0.6207
278.15 K | 0.00909 | 0.045 | 0.169 | 0.497 | 1.2 | 2.31 | 3.88 | 5.87 | 7.69
283.15 K | 0.0126 | 0.0614 | 0.224 | 0.65 | 1.5 | 2.92 | 4.64 | 6.96 | 9.05
288.15 K | 0.0173 | 0.0846 | 0.297 | 0.832 | 1.86 | 3.58 | 5.6 | 8.28 | 10.5
293.15 K | 0.0228 | 0.113 | 0.388 | 1.02 | 2.32 | 4.34 | 6.81 | 9.65 | 12
298.15 K | 0.0318 | 0.148 | 0.501 | 1.3 | 2.84 | 5.22 | 7.94 | 11.2 | 13.9
303.15 K | 0.0423 | 0.192 | 0.629 | 1.6 | 3.48 | 6.19 | 9.35 | 12.8 | 15.9
308.15 K | 0.0547 | 0.257 | 0.793 | 2.01 | 4.21 | 7.31 | 10.9 | 14.7 | 18
313.15 K | 0.071 | 0.329 | 1.02 | 2.46 | 5.04 | 8.54 | 12.7 | 16.8 | 20.2
318.15 K | 0.0919 | 0.419 | 1.25 | 2.99 | 5.94 | 9.98 | 14.5 | 19 | 22.5
323.15 K | 0.12 | 0.537 | 1.56 | 3.57 | 6.98 | 11.6 | 16.5 | 21.4 | 25.1
328.15 K | 0.155 | 0.673 | 1.89 | 4.3 | 8.24 | 13.4 | 18.7 | 24 | 28

CC(=O)N1CCN(c2ccc(OCC3COC(Cn4ccnc4)(c4ccc(Cl)cc4Cl)O3)cc2)CC1 (stereo not drawn) + C1COCCO1 + O
solubility (g/100 g solution)
Conditions | x2 = 0.02222 | x2 = 0.04865 | x2 = 0.0806 | x2 = 0.12 | x2 = 0.1698 | x2 = 0.2348 | x2 = 0.3231 | x2 = 0.45 | x2 = 0.648
293.15 K | 0.00759 | 0.0327 | 0.155 | 0.537 | 2.07 | 6.72 | 16.6 | 22.9 | 18.7
298.15 K | 0.00818 | 0.0386 | 0.171 | 0.692 | 2.58 | 8.67 | 18.8 | 25.4 | 20.6
303.15 K | 0.00845 | 0.0485 | 0.197 | 0.87 | 3.25 | 10.9 | 21.1 | 27.8 | 22.6
308.15 K | 0.00894 | 0.0594 | 0.216 | 1.04 | 4.24 | 13.4 | 24.4 | 29.9 | 24.3
313.15 K | 0.00948 | 0.07 | 0.25 | 1.3 | 5.11 | 16 | 27.2 | 32.5 | 26.7

c1ccc2[nH]c(-c3cscn3)nc2c1 + CO + O
solubility (g/100 g solution)
Conditions | 283.15 K | 288.15 K | 293.15 K | 298.15 K | 303.15 K | 308.15 K | 313.15 K | 318.15 K | 323.15 K
x2 = 0.05881 | 0.00229 | 0.00287 | 0.00369 | 0.00466 | 0.00574 | 0.00699 | 0.00862 | 0.0104 | 0.0128
x2 = 0.1233 | 0.0131 | 0.0159 | 0.0194 | 0.0238 | 0.0278 | 0.0335 | 0.0401 | 0.0473 | 0.0561
x2 = 0.1942 | 0.0339 | 0.0408 | 0.0481 | 0.0566 | 0.0663 | 0.0786 | 0.0909 | 0.105 | 0.122
x2 = 0.2727 | 0.0719 | 0.0844 | 0.101 | 0.119 | 0.139 | 0.161 | 0.187 | 0.216 | 0.246
x2 = 0.3599 | 0.131 | 0.154 | 0.181 | 0.206 | 0.242 | 0.278 | 0.317 | 0.364 | 0.412
x2 = 0.4576 | 0.21 | 0.243 | 0.283 | 0.328 | 0.368 | 0.419 | 0.477 | 0.541 | 0.616
x2 = 0.5675 | 0.329 | 0.373 | 0.425 | 0.486 | 0.554 | 0.62 | 0.697 | 0.779 | 0.874
x2 = 0.6923 | 0.478 | 0.542 | 0.614 | 0.69 | 0.779 | 0.87 | 0.967 | 1.07 | 1.19
x2 = 0.835 | 0.643 | 0.725 | 0.815 | 0.914 | 1.02 | 1.13 | 1.25 | 1.38 | 1.52

Cc1ncc(C[n+]2csc(CCO)c2C)c(N)n1.O=[N+]([O-])[O-] + O + CO
solubility (g/100 g solution)
Conditions | x2 = 0.1 | x2 = 0.2 | x2 = 0.3 | x2 = 0.4 | x2 = 0.5 | x2 = 0.6 | x2 = 0.7 | x2 = 0.8 | x2 = 0.9
278.15 K | 0.197 | 0.323 | 0.483 | 0.678 | 0.884 | 1.03 | 1.17 | 1.18 | 1.2
283.15 K | 0.221 | 0.371 | 0.566 | 0.801 | 1.05 | 1.24 | 1.41 | 1.43 | 1.44
288.15 K | 0.273 | 0.429 | 0.66 | 0.918 | 1.24 | 1.47 | 1.67 | 1.68 | 1.7
293.15 K | 0.35 | 0.52 | 0.79 | 1.08 | 1.47 | 1.77 | 2.02 | 2.04 | 2.08
298.15 K | 0.422 | 0.636 | 0.951 | 1.34 | 1.77 | 2.19 | 2.5 | 2.54 | 2.54
303.15 K | 0.518 | 0.786 | 1.17 | 1.64 | 2.18 | 2.68 | 3.06 | 3.14 | 3.1
308.15 K | 0.657 | 0.983 | 1.46 | 1.96 | 2.64 | 3.23 | 3.75 | 3.85 | 3.77
313.15 K | 0.812 | 1.24 | 1.81 | 2.52 | 3.25 | 3.94 | 4.6 | 4.72 | 4.55

CCCCCOC(=O)Nc1nc(=O)n(C2OC(C)C(O)C2O)cc1F (stereo not drawn) + CCOC(C)=O + CCCCCCC
solubility (g/100 g solution)
Conditions | 278.15 K | 283.15 K | 288.15 K | 293.15 K | 298.15 K | 303.15 K | 308.15 K | 313.15 K | 318.15 K | 323.15 K
x2 = 0.3 | 0.0197 | 0.0268 | 0.0361 | 0.0476 | 0.0629 | 0.0818 | 0.106 | 0.136 | 0.174 | 0.22
x2 = 0.4 | 0.0475 | 0.0561 | 0.0765 | 0.0904 | 0.106 | 0.132 | 0.154 | 0.184 | 0.216 | 0.267
x2 = 0.5 | 0.0862 | 0.111 | 0.141 | 0.179 | 0.221 | 0.274 | 0.337 | 0.411 | 0.502 | 0.604
x2 = 0.5998 | 0.131 | 0.166 | 0.212 | 0.286 | 0.332 | 0.407 | 0.518 | 0.643 | 0.749 | 0.931
x2 = 0.7 | 0.266 | 0.34 | 0.455 | 0.554 | 0.682 | 0.849 | 1.07 | 1.31 | 1.63 | 1.98
x2 = 0.8 | 0.485 | 0.609 | 0.801 | 0.99 | 1.27 | 1.6 | 2.05 | 2.49 | 3.12 | 3.74
x2 = 0.9001 | 0.622 | 0.794 | 1.08 | 1.44 | 1.81 | 2.46 | 3.02 | 4.02 | 4.87 | 6.07

CCC(C)n1ncn(-c2ccc(N3CCN(c4ccc(OCC5COC(Cn6cncn6)(c6ccc(Cl)cc6Cl)O5)cc4)CC3)cc2)c1=O (stereo not drawn) + ClCCl + CCCO
solubility (g/100 g solution)
Conditions | x2 = 0.07363 | x2 = 0.1517 | x2 = 0.2346 | x2 = 0.3229 | x2 = 0.417 | x2 = 0.5176 | x2 = 0.6254 | x2 = 0.741 | x2 = 0.8656
288.15 K | 0.0545 | 0.15 | 0.459 | 1.65 | 3.95 | 8.85 | 14.4 | 19.5 | 21.8
293.15 K | 0.0662 | 0.199 | 0.602 | 2.05 | 4.66 | 9.92 | 15.7 | 20.8 | 22.9
298.15 K | 0.0798 | 0.258 | 0.786 | 2.52 | 5.51 | 11.1 | 17 | 22 | 24
303.15 K | 0.0965 | 0.332 | 0.996 | 3.08 | 6.4 | 12.3 | 18.3 | 23.3 | 25.1
308.15 K | 0.115 | 0.424 | 1.27 | 3.71 | 7.42 | 13.6 | 19.7 | 24.6 | 26.2

c1ccc2[nH]c(-c3cscn3)nc2c1 + CC#N + O
solubility (g/100 g solution)
Conditions | 283.15 K | 288.15 K | 293.15 K | 298.15 K | 303.15 K | 308.15 K | 313.15 K | 318.15 K | 323.15 K
x2 = 0.04651 | 0.00121 | 0.00153 | 0.00195 | 0.00251 | 0.00312 | 0.00391 | 0.00486 | 0.00604 | 0.00759
x2 = 0.0989 | 0.00381 | 0.0048 | 0.0062 | 0.00795 | 0.00993 | 0.0122 | 0.0152 | 0.0184 | 0.0223
x2 = 0.1583 | 0.00804 | 0.0102 | 0.013 | 0.0163 | 0.0204 | 0.0251 | 0.0307 | 0.0373 | 0.0446
x2 = 0.2264 | 0.0137 | 0.0175 | 0.0219 | 0.027 | 0.0332 | 0.0403 | 0.0487 | 0.0587 | 0.0699
x2 = 0.3051 | 0.0203 | 0.0246 | 0.0311 | 0.0385 | 0.0467 | 0.0564 | 0.0675 | 0.0804 | 0.0944
x2 = 0.397 | 0.0272 | 0.0332 | 0.0403 | 0.049 | 0.0593 | 0.0713 | 0.0845 | 0.1 | 0.118
x2 = 0.506 | 0.0343 | 0.0409 | 0.0505 | 0.0604 | 0.0718 | 0.0849 | 0.1 | 0.121 | 0.141
x2 = 0.6372 | 0.0418 | 0.0499 | 0.0602 | 0.0732 | 0.0874 | 0.103 | 0.123 | 0.145 | 0.168
x2 = 0.798 | 0.0476 | 0.0573 | 0.0693 | 0.0823 | 0.0998 | 0.118 | 0.14 | 0.163 | 0.188

— the CheMixHub drug solubility set
